Assay results as given in US20060030616A1, “Anhydride modified cantharidin analogues useful in the treatment of cancer” (priority 1998, published 2006).

Assays:
[1] = tested on: HCT116 cells; test: MTT cytotoxicity assay, 72 h; assay type: cell-based, human; details: Homo sapiens, HCT-116, 72 h; HCT116, p53 wt; read-out: IC50 (mean ± SE) after 72 h continuous exposure
Method: (§1) Cells in a subconfluent phase are transferred to 96-well microtitre plates. L1210 cells are plated at a density of 1000 cells/well in 100 μl medium, while all other cell lines are plated at a density of 2000-25000 cells/well. The cells are left for 24 h prior to treatment to ensure exponential growth has been achieved, 24 h after plating (day 0), 100 μl of phosphatase inhibitor is added to each well, control wells received 100 μl of medium only. Drug exposure time is 72 h (day 3). The effect of phosphatase inhibition is tested in triplicate over a concentration range of […]−1×10^−8 M. Growth inhibitory effects are evaluated using the MTT assay and absorbance read at […]. The IC50 is the drug concentration at which cell growth is 50% inhibited based on the difference of optical density on day 0 and day 3 of drug exposure. Cytotoxicity is evaluated using a spectrophotometric assay which determines the percentage of cell growth following exposure of the cells to various concentrations of the phosphatase inhibitors for a period of 72 hours. The subsequent dose response curve is used to calculate IC50 values (the drug concentration at which cell growth is 50% inhibited).
(§2) Anti-cancer screening of the protein phosphatase inhibitors is assessed using the MTT assay. This assay determines cell viability by the ability of mitochondrial dehydrogenase to produce formazan crystals from 3-(4,5-dimethylthiazol-2-yl)-2,5-diphenyltetrazolium bromide. The viable cell number/well is directly proportional to the production of formazan, which following solubilization, can be measured spectrophotometrically (540 nm). This technique is also used by the National Cancer Institute to screen for new anticancer agents.
(§3) As described herein a number of cantharidin analogues have been synthesised and tested for their anticancer activity in nine cancer cell lines using the MTT assay after 72 h exposure. These new analogues are shown in FIG. 2 and have been designated MK-1 through to MK-9.

[2] = tested on: WiDr cells; test: MTT cytotoxicity assay, 72 h; assay type: cell-based, human; details: Homo sapiens, 72 h, p53 mt, read-out: IC50 (mean ± SE) after 72 h continuous exposure
Method: as §1, §2, §3

[3] = tested on: 143B cells; test: MTT cytotoxicity assay, 72 h; assay type: cell-based, human; details: Homo sapiens, 72 h, p53 mt, read-out: IC50 (mean ± SE) after 72 h continuous exposure
Method: as §1, §2, §3

[4] = tested on: ADDP cells; test: MTT cytotoxicity assay, 72 h; assay type: cell-based, human; details: Homo sapiens, 72 h, p53 mt, read-out: IC50 (mean ± SE) after 72 h continuous exposure
Method: as §1, §2, §3

[5] = tested on: SW480 cells; test: MTT cytotoxicity assay, 72 h; assay type: cell-based, human; details: Homo sapiens, 72 h; SW480, p53 mt; read-out: IC50 (mean ± SE) after 72 h continuous exposure
Method: as §1, §2, §3

[6] = tested on: HL60 cells; test: MTT cytotoxicity assay, 72 h; assay type: cell-based, human; details: Homo sapiens, HL-60, 72 h; HL60, p53 nul; read-out: IC50 (mean ± SE) after 72 h continuous exposure
Method: as §1, §2, §3

[7] = tested on: HT29 cells; test: MTT cytotoxicity assay, 72 h; assay type: cell-based, human; details: Homo sapiens, HT-29, 72 h; HT29, p53 mt; read-out: IC50 (mean ± SE) after 72 h continuous exposure
Method: as §1, §2, §3

[8] = tested on: HCT116 cells; test: Cell cycle analysis, flow cytometry of propidium iodide stained cells; assay type: cell-based, human
Method: (§4) The cells are fixed in 70% ethanol and stored at −20° C. until analysis is performed (1-2 weeks). After fixing, the cells are pelleted and incubated in PBS containing propidium iodide ([…]) and RNase A (200 mg/ml) for at least 30 min at room temperature. The samples (2×10^4 events) are analysed using a Becton Dickson FACScan, fluorescence is collected in fluorescence detector 2 (FL2), filter 575/30 nm band pass. Cell cycle distribution is assessed using Cell Quest software (Becton Dickson).
(§5) The ability of the protein phosphatase inhibitors to abrogate the G1 or G2 checkpoint of the cell cycle may be determined by cell cycle analysis using flow cytometry. Briefly, asynchronous cell cultures are harvested 18 h after 6 Gy irradiation and/or 12 h incubation with the protein phosphatase inhibitor. Depending upon the p53 status of the cell line, radiation treatment alone will induce arrest in either G1 and/or G2 phase of the cell cycle.
(§6) Data shown in Table 2 and FIG. 4 show the cell cycle response of L1210, HL60, HT29 and HCT116 cells to cantharidin and the new cantharidin analogues MK-2 and MK-4 after 12 h exposure. In summary, cantharidin and MK-2 produced a similar response and induced G2 arrest in all four cell lines tested. […] HL60 and HCT116 cells. […] The magnitude of the cell cycle arrest induced by these drugs directly correlated with their cytotoxicity in the respective cell lines. […] The cytotoxicity of the […]

[9] = tested on: HT29 cells; test: as above; assay type: cell-based, human; details: for Cell Cycle Distribution, G1 / Cell Cycle Distribution, G2 + M / Cell Cycle Distribution, S / Cell Cycle Distribution, sub G1 / Cell cycle remark: 12 h
Method: as §4, §5, §6

[10] = tested on: nine cancer cell lines; test: MTT cytotoxicity assay, 72 h, ranges over cell line panel; assay type: cell-based; details: nine cell lines, read-out: IC50 range across all cell lines tested
Method: as §1, §2, §3

[11] = tested on: L1210 cells; test: Cell cycle analysis, flow cytometry of propidium iodide stained cells; assay type: cell-based, murine
Method: as §4, §5, §6

C[C@@]12C(=O)OC(=O)[C@]1(C)[C@H]1CC[C@@H]2O1 [Cantharidin, exo.exo-2.3-dimethyl-7-oxobicyclo[2.2.1]heptane-2,3-dicarboxylic acid anhydride]
IC50 [1]: 12 µM
IC50 [2]: 6.1 ± 0.5 µM
IC50 [3]: 10.2 ± 1.2 µM
IC50 [4]: 12 ± 0.8 µM
IC50 [5]: 17.5 µM
IC50 [6]: 13 µM
IC50 [7]: 6.4 ± 0.7 µM
Cell Cycle Distribution, G1 ([8]; HCT116, 1 μM, 12 h): 39.9 percentage of total
Cell Cycle Distribution, G2 + M ([8]; HCT116, 1 μM, 12 h): 41.9 percentage of total
Cell Cycle Distribution, S ([8]; HCT116, 1 μM, 12 h): 17.2 percentage of total
Cell Cycle Distribution, sub G1 ([8]; HCT116, 1 μM, 12 h): 2.2 percentage of total
Cell Cycle Distribution, G1 ([8]; HCT116, 5 μM, 12 h): 39.9 percentage of total
Cell Cycle Distribution, G2 + M ([8]; HCT116, 5 μM, 12 h): 41.8 percentage of total
Cell Cycle Distribution, S ([8]; HCT116, 5 μM, 12 h): 16.8 percentage of total
Cell Cycle Distribution, sub G1 ([8]; HCT116, 5 μM, 12 h): 2.9 percentage of total
Cell Cycle Distribution, G1 ([8]; HCT116, 10 μM, 12 h): 38.0 percentage of total
Cell Cycle Distribution, G2 + M ([8]; HCT116, 10 μM, 12 h): 42.0 percentage of total
Cell Cycle Distribution, S ([8]; HCT116, 10 μM, 12 h): 14.9 percentage of total
Cell Cycle Distribution, sub G1 ([8]; HCT116, 10 μM, 12 h): 6.2 percentage of total
Cell Cycle Distribution, G1 ([8]; HCT116, 50 μM, 12 h): 25.1 percentage of total
Cell Cycle Distribution, G2 + M ([8]; HCT116, 50 μM, 12 h): 48.1 percentage of total
Cell Cycle Distribution, S ([8]; HCT116, 50 μM, 12 h): 17.8 percentage of total
Cell Cycle Distribution, sub G1 ([8]; HCT116, 50 μM, 12 h): 11.1 percentage of total
Cell cycle remark ([8]; HCT116, 50 μM, 12 h): G2 arrest
Cell cycle response ([8]; HCT116, 12 h exposure): G2 arrest
Cell Cycle Distribution, G1 ([9]; HT29, 1 μM): 46.2 percentage of total
Cell Cycle Distribution, G2 + M ([9]; HT29, 1 μM): 37.4 percentage of total
Cell Cycle Distribution, S ([9]; HT29, 1 μM): 7.8 percentage of total
Cell Cycle Distribution, sub G1 ([9]; HT29, 1 μM): 9.0 percentage of total
Cell Cycle Distribution, G1 ([9]; HT29, 5 μM): 47.4 percentage of total
Cell Cycle Distribution, G2 + M ([9]; HT29, 5 μM): 39.8 percentage of total
Cell Cycle Distribution, S ([9]; HT29, 5 μM): 9.3 percentage of total
Cell Cycle Distribution, sub G1 ([9]; HT29, 5 μM): 4.0 percentage of total
Cell Cycle Distribution, G1 ([9]; HT29, 10 μM): 42.7 percentage of total
Cell Cycle Distribution, G2 + M ([9]; HT29, 10 μM): 40.3 percentage of total
Cell Cycle Distribution, S ([9]; HT29, 10 μM): 14.6 percentage of total
Cell Cycle Distribution, sub G1 ([9]; HT29, 10 μM): 2.8 percentage of total
Cell cycle remark ([9]; HT29, 10 μM): G2 arrest
Cell Cycle Distribution, G1 ([9]; HT29, 50 μM): 46.0 percentage of total
Cell Cycle Distribution, G2 + M ([9]; HT29, 50 μM): 26.0 percentage of total
Cell Cycle Distribution, S ([9]; HT29, 50 μM): 14.7 percentage of total
Cell Cycle Distribution, sub G1 ([9]; HT29, 50 μM): 15.1 percentage of total
Cell cycle remark ([9]; HT29, 50 μM): Cell Death
Cell cycle response ([9]; HT29, 12 h exposure): G2 arrest
IC50 [10]: 6.1 to 18 µM
Cell Cycle Distribution, G1 ([11]; L1210, 1 μM, 12 h): 45.8 percentage of total
Cell Cycle Distribution, G2 + M ([11]; L1210, 1 μM, 12 h): 21.6 percentage of total
Cell Cycle Distribution, S ([11]; L1210, 1 μM, 12 h): 33.7 percentage of total
Cell Cycle Distribution, sub G1 ([11]; L1210, 1 μM, 12 h): 0.5 percentage of total
Cell Cycle Distribution, G1 ([11]; L1210, 5 μM, 12 h): 46.5 percentage of total
Cell Cycle Distribution, G2 + M ([11]; L1210, 5 μM, 12 h): 21.9 percentage of total
Cell Cycle Distribution, S ([11]; L1210, 5 μM, 12 h): 32.6 percentage of total
Cell Cycle Distribution, sub G1 ([11]; L1210, 5 μM, 12 h): 0.6 percentage of total
Cell Cycle Distribution, G1 ([11]; L1210, 10 μM, 12 h): 49.1 percentage of total
Cell Cycle Distribution, G2 + M ([11]; L1210, 10 μM, 12 h): 18.9 percentage of total
Cell Cycle Distribution, S ([11]; L1210, 10 μM, 12 h): 33.0 percentage of total
Cell Cycle Distribution, sub G1 ([11]; L1210, 10 μM, 12 h): 0.5 percentage of total
Cell Cycle Distribution, G1 ([11]; L1210, 50 μM, 12 h): 22.0 percentage of total
Cell Cycle Distribution, G2 + M ([11]; L1210, 50 μM, 12 h): 50.6 percentage of total
Cell Cycle Distribution, S ([11]; L1210, 50 μM, 12 h): 27.8 percentage of total
Cell Cycle Distribution, sub G1 ([11]; L1210, 50 μM, 12 h): 1.9 percentage of total
Cell cycle remark ([11]; L1210, 50 μM, 12 h): G2 arrest
Cell cycle response ([11]; L1210, 12 h exposure): G2 arrest
